This experiment concerns T1, B. licheniformis DMN6 trypsin (arginine-specific alkaline trypsin).
T1 construct: gene BLDMN6; native secreted enzyme purified from DMN6 culture supernatant (DEAE, Superdex 75); 44 kDa by SDS-PAGE
In words: spectrophotometric hydrolysis at […] nm, Lineweaver-Burk. In kind it is biochemical, Bacillus licheniformis. The following applies: 25 °C, 50 mM Tris-HCl pH 9.0, 0.1-1.5 mM BAEE.

Usually Km stands for the concentration of substrate that gives half-maximal velocity. In the case of `CCOC(=O)[C@H](CCCNC(=N)N)NC(=O)c1ccccc1` [BAEE], the Km was found to be 880 µM.

Source of the values: publication PMC4691143, “Biochemical Characterization of An Arginine-Specific Alkaline Trypsin from Bacillus licheniformis” (International Journal of Molecular Sciences, 2015).
